Experiments:
Type in all cases: cell-based
[1] = tested on: homogeneous human amniotic fluid clonal stem cells; test: In vitro neural differentiation with pharmacological agent screening; conditions: neural induction 21 days; results not shown
[2] = tested on: homogeneous human amniotic fluid clonal stem cells; test: In vitro osteocyte differentiation with pharmacological agent screening; conditions: results not shown
[3] = tested on: homogeneous human amniotic fluid clonal stem cells; test: In vitro chondrocyte differentiation with pharmacological agent screening; conditions: 21 days; results not shown

| Compound | effect on neural / neurological development [1] | effect on bone development / osteogenic differentiation [2] | effect on chondrogenic differentiation [3] |
| --- | --- | --- | --- |
| O=S(=O)([O-])[O-].[Mg+2] [MgSO4] | minimal or no effect | minimal or no effect | minimal or no effect |
| CCCC(CCC)C(=O)O [VPA, valproic acid] | decreases | does not affect | does not affect |
